How the values were obtained:
Test in all cases: Microbiological challenge testing in BPW broth, graded subculture counts
Assay type in all cases: cell-based
[1] = system: Proteus vulgaris Wild type
Method in brief: (§1)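 Serial 1:10 dilutions were made in pH 7.2 phosphate buffer and spread-plated onto PCA, and colonies were counted after 48 h or more at 35 °C. In the challenge, BPW–dextrose tubes containing the test material received inoculum at 10^5–10^6 CFU/mL at time zero. Controls without test material served as reference.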

[2] = system: Staphylococcus epidermidis ATCC 12228
Method in brief: as §1

[3] = system: Aeromonas sp. Wild type
Method in brief: as §1

[4] = system: Burkholderia cepacia Wild type; conditions: B. cepacia
Method in brief: as §1

[5] = system: Staphylococcus aureus ATCC 25923; conditions: S. aureus
Method in brief: as §1

[6] = system: Escherichia coli ATCC 25922; conditions: E. Coli
Method in brief: as §1

CC1(C)C(O)C(C)(C)C1O (stereo not drawn) [TMCBD, 2,2,4,4-tetramethyl-1,3-cyclobutanediol]
P. vulgaris growth grade, 3 day ([1]; 0.5% weight/volume): 4 (1000 to 10,000 colonies countable (thus 10,000 CFU/mL to 100,000 CFU/mL))
P. vulgaris growth grade, 13 day ([1]; 0.5% weight/volume): 4 (1000 to 10,000 colonies countable (thus 10,000 CFU/mL to 100,000 CFU/mL))
P. vulgaris growth grade, 30 day ([1]; 0.5% weight/volume): 4 (1000 to 10,000 colonies countable (thus 10,000 CFU/mL to 100,000 CFU/mL))
P. vulgaris growth grade, 3 day ([1]; 1.25% weight/volume): 3 (100 to 1000 colonies (thus 1000 to 10,000 CFU/mL))
P. vulgaris growth grade, 13 day ([1]; 1.25% weight/volume): 2 (52 to 100 colonies counted (thus 520 to 1000 CFU/mL))
P. vulgaris growth grade, 30 day ([1]; 1.25% weight/volume): 0
P. vulgaris growth grade, 3 day ([1]; 2.5% weight/volume): 4 (1000 to 10,000 colonies countable (thus 10,000 CFU/mL to 100,000 CFU/mL))
P. vulgaris growth grade, 13 day ([1]; 2.5% weight/volume): 1 (0 to 51 colonies counted (thus 10 to 510 CFU/mL based on 0.1-mL sample))
P. vulgaris growth grade, 30 day ([1]; 2.5% weight/volume): 0
P. vulgaris growth grade, 3 day ([1]; 5.0% weight/volume): 0
P. vulgaris growth grade, 13 day ([1]; 5.0% weight/volume): 0
P. vulgaris growth grade, 30 day ([1]; 5.0% weight/volume): 0
S. epidermidis growth grade, 3 day ([2]; 0.5% weight/volume): 4 (1000 to 10,000 colonies countable (thus 10,000 CFU/mL to 100,000 CFU/mL))
S. epidermidis growth grade, 13 day ([2]; 0.5% weight/volume): 4 (1000 to 10,000 colonies countable (thus 10,000 CFU/mL to 100,000 CFU/mL))
S. epidermidis growth grade, 30 day ([2]; 0.5% weight/volume): 4 (1000 to 10,000 colonies countable (thus 10,000 CFU/mL to 100,000 CFU/mL))
S. epidermidis growth grade, 3 day ([2]; 1.25% weight/volume): 2 (52 to 100 colonies counted (thus 520 to 1000 CFU/mL))
S. epidermidis growth grade, 13 day ([2]; 1.25% weight/volume): 3 (100 to 1000 colonies (thus 1000 to 10,000 CFU/mL))
S. epidermidis growth grade, 30 day ([2]; 1.25% weight/volume): 4 (1000 to 10,000 colonies countable (thus 10,000 CFU/mL to 100,000 CFU/mL))
S. epidermidis growth grade, 3 day ([2]; 2.5% weight/volume): 2 (52 to 100 colonies counted (thus 520 to 1000 CFU/mL))
S. epidermidis growth grade, 13 day ([2]; 2.5% weight/volume): 2 (52 to 100 colonies counted (thus 520 to 1000 CFU/mL))
S. epidermidis growth grade, 30 day ([2]; 2.5% weight/volume): 2 (52 to 100 colonies counted (thus 520 to 1000 CFU/mL))
S. epidermidis growth grade, 3 day ([2]; 5.0% weight/volume): 1 (0 to 51 colonies counted (thus 10 to 510 CFU/mL based on 0.1-mL sample))
S. epidermidis growth grade, 13 day ([2]; 5.0% weight/volume): 0
S. epidermidis growth grade, 30 day ([2]; 5.0% weight/volume): 0
Aeromonas sp growth grade, 3 day ([3]; 0.5% weight/volume): 5 (More than 10,000 colonies estimated (thus more than 100,000 CFU/mL))
Aeromonas sp growth grade, 14 day ([3]; 0.5% weight/volume): 4 (1000 to 10,000 colonies countable (thus 10,000 CFU/mL to 100,000 CFU/mL))
Aeromonas sp growth grade, 30 day ([3]; 0.5% weight/volume): 4 (1000 to 10,000 colonies countable (thus 10,000 CFU/mL to 100,000 CFU/mL))
Aeromonas sp growth grade, 3 day ([3]; 1.25% weight/volume): 4 (1000 to 10,000 colonies countable (thus 10,000 CFU/mL to 100,000 CFU/mL))
Aeromonas sp growth grade, 14 day ([3]; 1.25% weight/volume): 4 (1000 to 10,000 colonies countable (thus 10,000 CFU/mL to 100,000 CFU/mL))
Aeromonas sp growth grade, 30 day ([3]; 1.25% weight/volume): 4 (1000 to 10,000 colonies countable (thus 10,000 CFU/mL to 100,000 CFU/mL))
Aeromonas sp growth grade, 3 day ([3]; 2.5% weight/volume): 4 (1000 to 10,000 colonies countable (thus 10,000 CFU/mL to 100,000 CFU/mL))
Aeromonas sp growth grade, 14 day ([3]; 2.5% weight/volume): 2 (52 to 100 colonies counted (thus 520 to 1000 CFU/mL))
Aeromonas sp growth grade, 30 day ([3]; 2.5% weight/volume): 3 (100 to 1000 colonies (thus 1000 to 10,000 CFU/mL))
Aeromonas sp growth grade, 3 day ([3]; 5.0% weight/volume): 2 (52 to 100 colonies counted (thus 520 to 1000 CFU/mL))
Aeromonas sp growth grade, 14 day ([3]; 5.0% weight/volume): 0
Aeromonas sp growth grade, 30 day ([3]; 5.0% weight/volume): 0
Grade ([4]; 0.5% (wt/vol), 3 day): 4 (1000 to 10,000 colonies countable (thus 10,000 CFU/mL to 100,000 CFU/mL))
Grade ([4]; 0.5% (wt/vol), 14 day): 4 (1000 to 10,000 colonies countable (thus 10,000 CFU/mL to 100,000 CFU/mL))
Grade ([4]; 0.5% (wt/vol), 30 day): 4 (1000 to 10,000 colonies countable (thus 10,000 CFU/mL to 100,000 CFU/mL))
Grade ([4]; 1.25% (wt/vol), 3 day): 3 (100 to 1000 colonies (thus 1000 to 10,000 CFU/mL))
Grade ([4]; 1.25% (wt/vol), 14 day): 2 (52 to 100 colonies counted (thus 520 to 1000 CFU/mL))
Grade ([4]; 1.25% (wt/vol), 30 day): 4 (1000 to 10,000 colonies countable (thus 10,000 CFU/mL to 100,000 CFU/mL))
Grade ([4]; 2.5% (wt/vol), 3 day): 1 (0 to 51 colonies counted (thus 10 to 510 CFU/mL based on 0.1-mL sample))
Grade ([4]; 2.5% (wt/vol), 14 day): 0
Grade ([4]; 2.5% (wt/vol), 30 day): 0
Grade ([4]; 5.0% (wt/vol), 3 day): 1 (0 to 51 colonies counted (thus 10 to 510 CFU/mL based on 0.1-mL sample))
Grade ([4]; 5.0% (wt/vol), 14 day): 0
Grade ([4]; 5.0% (wt/vol), 30 day): 0
Grade ([5]; 0.5% (wt/vol), 3 day): 4 (1000 to 10,000 colonies countable (thus 10,000 CFU/mL to 100,000 CFU/mL))
Grade ([5]; 0.5% (wt/vol), 14 day): 4 (1000 to 10,000 colonies countable (thus 10,000 CFU/mL to 100,000 CFU/mL))
Grade ([5]; 0.5% (wt/vol), 30 day): 4 (1000 to 10,000 colonies countable (thus 10,000 CFU/mL to 100,000 CFU/mL))
Grade ([5]; 1.25% (wt/vol), 3 day): 4 (1000 to 10,000 colonies countable (thus 10,000 CFU/mL to 100,000 CFU/mL))
Grade ([5]; 1.25% (wt/vol), 14 day): 4 (1000 to 10,000 colonies countable (thus 10,000 CFU/mL to 100,000 CFU/mL))
Grade ([5]; 1.25% (wt/vol), 30 day): 4 (1000 to 10,000 colonies countable (thus 10,000 CFU/mL to 100,000 CFU/mL))
Grade ([5]; 2.5% (wt/vol), 3 day): 2 (52 to 100 colonies counted (thus 520 to 1000 CFU/mL))
Grade ([5]; 2.5% (wt/vol), 14 day): 1 (0 to 51 colonies counted (thus 10 to 510 CFU/mL based on 0.1-mL sample))
Grade ([5]; 2.5% (wt/vol), 30 day): 1 (0 to 51 colonies counted (thus 10 to 510 CFU/mL based on 0.1-mL sample))
Grade ([5]; 5.0% (wt/vol), 3 day): 0
Grade ([5]; 5.0% (wt/vol), 14 day): 0
Grade ([5]; 5.0% (wt/vol), 30 day): 0
Grade ([6]; 0.5% (wt/vol), 3 day): 5 (More than 10,000 colonies estimated (thus more than 100,000 CFU/mL))
Grade ([6]; 0.5% (wt/vol), 14 day): 5 (More than 10,000 colonies estimated (thus more than 100,000 CFU/mL))
Grade ([6]; 0.5% (wt/vol), 30 day): 5 (More than 10,000 colonies estimated (thus more than 100,000 CFU/mL))
Grade ([6]; 1.25% (wt/vol), 3 day): 4 (1000 to 10,000 colonies countable (thus 10,000 CFU/mL to 100,000 CFU/mL))
Grade ([6]; 1.25% (wt/vol), 14 day): 4 (1000 to 10,000 colonies countable (thus 10,000 CFU/mL to 100,000 CFU/mL))
Grade ([6]; 1.25% (wt/vol), 30 day): 4 (1000 to 10,000 colonies countable (thus 10,000 CFU/mL to 100,000 CFU/mL))
Grade ([6]; 2.5% (wt/vol), 3 day): 4 (1000 to 10,000 colonies countable (thus 10,000 CFU/mL to 100,000 CFU/mL))
Grade ([6]; 2.5% (wt/vol), 14 day): 4 (1000 to 10,000 colonies countable (thus 10,000 CFU/mL to 100,000 CFU/mL))
Grade ([6]; 2.5% (wt/vol), 30 day): 4 (1000 to 10,000 colonies countable (thus 10,000 CFU/mL to 100,000 CFU/mL))
Grade ([6]; 5.0% (wt/vol), 3 day): 0
Grade ([6]; 5.0% (wt/vol), 14 day): 0
Grade ([6]; 5.0% (wt/vol), 30 day): 0

Source: patent publication US20100160454A1, “ANTIMICROBIAL AGENTS, COMPOSITIONS AND PRODUCTS CONTAINING THE SAME, AND METHODS OF USING THE COMPOSITIONS AND PRODUCTS” (Eastman Chemical Company, priority 2008, published 2010)
